Patent publication US7781421B2, “Neuroactive 13, 24-cyclo-18, 21-dinorcholanes and structurally related pentacyclic steriods” (Washington University, priority 2003, dated 2010)
Read-outs that look alike come from different tables or passages of the source.

What was measured:
[1] = molecular target: GABAA receptor ([35S]-TBPS binding site, rat brain cortical membranes); assay: Displacement of [35S]-TBPS binding, rat brain cortical membranes; settings: 5 μM GABA, 2 nM [35S]-TBPS; ± standard error of the means
Experimental: Rat brain cortical membranes were prepared with minor modifications of the method previously reported. (Hawkinson, J. E., et al., Correlation of Neuroactive Steroid Modulation of [^35S]t-Butylbicyclophosophorothionate and [^3H]Flunitrazepam Binding and γ-Aminobutyric AcidA Receptor Function, Mol. Pharmacol., 1994, 46, 977-985). Briefly, frozen rat cerebral cortices (Pel-freez, Rogers, Ak.) were thawed and homogenized in 10 volumes of ice-cold 0.32 M sucrose using a glass/Teflon pestle. The homogenate was centrifuged at 1500×g for 10 min at 4° C. The resultant supernatant was centrifuged at 10,000×g for 30 min at 4° C. The pellet (P2) from this centrifugation was resuspended in 200 mM NaCl, 50 mM potassium phosphate buffer, pH 7.4, and centrifuged at 10,000×g for 20 min at 4° C. This washing procedure was done a total of three times, and then pellets were resuspended in buffer (˜4 mL/brain) using a glass/Teflon pestle. The membrane suspension was aliquoted, frozen in liquid nitrogen, and stored at −80° C. prior to use.
[^35S]-TBPS Binding assays were done according to the procedure described previously (Hawkinson, J. E., et al., Correlation of Neuroactive Steroid Modulation of [^35S]t-Butylbicyclophosophorothionate and [^3H]Flunitrazepam Binding and γ-Aminobutyric AcidA Receptor Function, Mol. Pharmacol., 1994, 46, 977-985) with modifications. Briefly, aliquots of membrane solution (0.5 mg/mL final protein concentration in assay) were incubated with 5 μM GABA, 2 nM [^35S]-TBPS (45-120 Ci/mmol), and 5 μL aliquots of steroid in DMSO solution (final assay concentrations ranged from 1 nM to 10 μM), and brought to a final volume of 1 mL with 200 mM NaCl, 50 mM potassium phosphate buffer, pH 7.4. […] Assay tubes were incubated for 2 hr at room temperature. A Brandel (Gaithersburg, Md.) cell harvester was used for filtration of the assay tubes through Whatman/GF/C glass filter paper. Filter paper was rinsed with 4 mL of ice-cold buffer three times. Radioactivity bound to the filters was read by liquid scintillation counter and data was fit using Sigma Plot version 3.0 to the Hill equation i. f=Rmax/{1+([conc]/IC50)^n}
Where Rmax is the maximal effect, [conc] is steroid concentration, IC50 is the half-maximal inhibitor concentration and n is the Hill coefficient. Each data point was determined in triplicate and 2-3 full concentration-response curves were generated for each steroid.

[2] = molecular target: T1, rat α1β2γ2 GABAA Receptor (Rattus norvegicus, UniProt P18508+P62813+P63138, INS375LLRMFSFK); assay: Xenopus oocyte two-electrode voltage-clamp electrophysiology; type: cell-based; settings: for Oocyte electrophysiology, ratio of currents in presence/absence of compound, 0.1 μM: 0.1 μM compound co-applied with 2 μM GABA; for Oocyte electrophysiology, ratio of currents in presence/absence of compound, 0.1 μM / Oocyte electrophysiology, ratio of currents in presence/absence of compound, 1 μM / Oocyte electrophysiology, ratio of currents in presence/absence of compound, 10 μM: −70 mV; for Oocyte electrophysiology, ratio of currents in presence/absence of compound, 1 μM: 1 μM compound co-applied with 2 μM GABA; for Oocyte electrophysiology, ratio of currents in presence/absence of compound, 10 μM: 10 μM compound co-applied with 2 μM GABA; for Gating (10 μM), ratio of compound only current/2 μM GABA current: direct current gated by 10 μM compound in the absence of GABA
T1 construct: from linearized pBluescript vectors containing receptor coding regions; expressed in transfected cells; host or cells: Xenopus laevis oocytes injected with in vitro transcribed capped mRNA
T1 sequence (P62813 28-455, stated change not applied): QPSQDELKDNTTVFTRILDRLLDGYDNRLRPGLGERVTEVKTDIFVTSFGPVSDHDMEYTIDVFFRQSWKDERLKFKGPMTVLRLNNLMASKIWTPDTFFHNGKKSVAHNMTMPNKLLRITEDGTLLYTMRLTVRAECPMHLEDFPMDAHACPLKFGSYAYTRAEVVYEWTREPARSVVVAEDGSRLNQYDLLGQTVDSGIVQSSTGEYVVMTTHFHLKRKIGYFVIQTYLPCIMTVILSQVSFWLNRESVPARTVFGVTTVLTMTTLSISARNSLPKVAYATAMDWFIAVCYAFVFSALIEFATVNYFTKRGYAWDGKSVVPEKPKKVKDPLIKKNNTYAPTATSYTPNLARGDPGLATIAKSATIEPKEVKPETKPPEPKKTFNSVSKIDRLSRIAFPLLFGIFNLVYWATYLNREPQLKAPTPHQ
T1 sequence (P63138 26-474, stated change not applied): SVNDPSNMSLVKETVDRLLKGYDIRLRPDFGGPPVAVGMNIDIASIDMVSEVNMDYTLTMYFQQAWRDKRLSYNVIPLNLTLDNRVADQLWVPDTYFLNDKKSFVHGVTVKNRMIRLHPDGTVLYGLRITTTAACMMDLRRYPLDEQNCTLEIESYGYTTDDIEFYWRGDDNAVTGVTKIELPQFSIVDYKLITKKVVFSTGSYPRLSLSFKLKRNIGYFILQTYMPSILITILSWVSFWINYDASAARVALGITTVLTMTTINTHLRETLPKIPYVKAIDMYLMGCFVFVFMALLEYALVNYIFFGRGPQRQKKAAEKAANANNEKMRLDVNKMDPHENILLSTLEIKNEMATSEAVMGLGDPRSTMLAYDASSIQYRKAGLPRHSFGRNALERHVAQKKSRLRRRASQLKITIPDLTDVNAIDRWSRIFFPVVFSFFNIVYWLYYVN
T1 sequence (P18508 with tags, fused parts or gaps INS375LLRMFSFK): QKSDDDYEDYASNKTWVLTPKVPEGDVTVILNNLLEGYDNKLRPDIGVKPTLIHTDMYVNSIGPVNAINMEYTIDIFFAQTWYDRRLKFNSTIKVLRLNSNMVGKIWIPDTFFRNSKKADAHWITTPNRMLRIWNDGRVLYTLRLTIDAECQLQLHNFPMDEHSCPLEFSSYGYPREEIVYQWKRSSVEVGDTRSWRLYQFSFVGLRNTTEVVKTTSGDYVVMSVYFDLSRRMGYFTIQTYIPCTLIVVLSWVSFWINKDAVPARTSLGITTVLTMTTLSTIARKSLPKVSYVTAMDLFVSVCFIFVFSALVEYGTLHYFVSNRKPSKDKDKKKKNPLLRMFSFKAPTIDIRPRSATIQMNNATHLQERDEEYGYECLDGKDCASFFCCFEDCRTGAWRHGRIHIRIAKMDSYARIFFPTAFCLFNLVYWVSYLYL
Experimental: Stage V-VI oocytes were harvested from sexually mature female Xenopus laevis (Xenopus One, Northland, Mich.) under 0.1% tricaine (3-aminobenzoic acid ethyl ester) anesthesia. Oocytes were defolliculated by shaking for 20 min at 37° C. in collagenase (2 mg/ml) dissolved in calcium-free solution containing (in mM): 96 NaCl, 2 KCl, 1 MgCl2, and 5 HEPES at pH 7.4. Capped mRNA, encoding rat GABAA receptor α1, β2 and γ2L subunits was transcribed in vitro using the mMESSAGE mMachine Kit (Ambion, Austin, Tex.) from linearized pBluescript vectors containing receptor coding regions. Subunit transcripts were injected in equal parts (20-40 ng total RNA) 8-24 hours following defolliculation. Oocytes were incubated up to 5 days at 18° C. in ND96 medium containing (in mM): 96 NaCl, 1 KCl, 1 MgCl2, 2 CaCl2 and 5 HEPES at pH 7.4, supplemented with pyruvate (5 mM), penicillin (100 U/ml), streptomycin (100 μg/ml) and gentamycin (50 μg/ml). The cDNAs for the rat GABAA-receptor subunits were originally provided by A. Tobin, University of California, Los Angels (α1), P. Malherbe, Hoffman-La Roche, Switzerland (β2), C. Fraser, National Institute on Alcohol Abuse and Alcoholism (γ2L).
Two-electrode voltage-clamp experiments were performed with a Warner OC725 amplifier 2-5 days following RNA injection. The extracellular recording solution was ND96 medium with no supplements. Intracellular recording pipettes were filled with 3 M KCl and had open tip resistances of ˜1 MΩ. Drugs were applied from a common tip via a gravity-driven multibarrel drug-delivery system. Steroids were simultaneously co-applied with GABA. Cells were clamped at −70 mV for all experiments, and peak current during 20 s drug applications was measured. Data acquisition and analysis were performed with pCLAMP software (Axon Instruments, California). Statistical differences were determined using a two-tailed Student's t-test.
The GABA concentration used for the control response was 2 μM. Each compound was evaluated on at least four different oocytes at the concentrations indicated, and the results reported are the ratio of the currents measured in the presence/absence of added compound. (G) represents direct current gated by 10 μM compound in the absence of GABA, and this current is reported as the ratio of compound only current/2 μM GABA current. Error limits are calculated as standard error of the means.

Xenopus laevis tadpoles = assay: Tadpole loss of righting (LRR) and swimming (LSR) reflexes; type: in vivo; settings: 3 h equilibration at room temperature; for EC50: read-out: LSR EC50 (loss of swimming response)
Experimental: Tadpole LRR was measured as described previously. (See, Wittmer, L. L., et al., Enantioselectivity of steroid-induced γ-aminobutyric acidA receptor modulation and anesthesia, Mol. Phar., 1996, 50:1581-1586). Briefly, groups of 10 early prelimb-bud stage Xenopus laevis tadpoles (Nasco, Fort Atkinson, Wis.) were placed in 100 mL of oxygenated Ringer's stock solution containing various concentrations of compound. Compounds were added from a 10 mM DMSO stock (final concentration of DMSO in test solutions ≦0.1%). After equilibrating at room temperature for 3 h, tadpoles were evaluated using the LRR and LSR behavioral endpoints. LRR was defined as failure of the tadpole to right itself within 5 sec after being flipped by a smooth glass rod. LSR was defined as failure of the tadpole to swim when touched by a smooth glass rod. In general, the tadpoles regained their righting and swimming reflexes when placed in fresh oxygenated Ringer's solution. Control beakers containing up to 0.6% DMSO produced no LRR or LSR in tadpoles.
Tadpole LRR and LSR concentration-response curves were fit using Sigma Plot version 3.0 to the Hill equation f=Rmax/{1+([conc]/EC50)^n}
where Rmax is the maximum effect, [conc] is the steroid concentration, EC50 is the half-maximal effective concentration, and n is the Hill coefficient.

Structure (SMILES) | IC50 [1] | Oocyte electrophysiology, ratio of currents in presence/absence of compound, 0.1 μM [2] | Oocyte electrophysiology, ratio of currents in presence/absence of compound, 1 μM [2] | Oocyte electrophysiology, ratio of currents in presence/absence of compound, 10 μM [2] | Gating (10 μM), ratio of compound only current/2 μM GABA current [2] | LRR ED50 (loss of righting response) (Xenopus laevis tadpoles) | EC50 (Xenopus laevis tadpoles; Xenopus laevis, 3 h) | melting point | EC50 (Xenopus laevis tadpoles) | Reversibility of steroid effect on GABA current (FIG. 1A) ([2]; 500 nM compound, 2 μM GABA, GABA recovery panel) | LSR EC50 (loss of swimming response) (Xenopus laevis tadpoles)
CC12CCC(O)CC1CCC1C2CCC23C=CC(=O)CC2CCC13 (stereo not drawn) [Compound 30a, (3α,5α)-3-Hydroxy-13,24-Cyclo-18,21-dinorchol-23-en-22-one] | 1.26 ± 0.1 µM | 1.12 ± 0.08 | 1.54 ± 0.30 | 5.07 ± 0.98 | −0.04 ± 0.05 | 0.73 ± 0.16 µM | 5.48 ± 0.09 µM | 168 to 170 °C |  |  | 
CC12CCC(O)CC1CCC1C2CCC23C=CC(=O)CC2CCC13 (stereo not drawn) [Compound 30b, (3α,5β)-3-Hydroxy-13,24-cyclo-18,21-dinorchol-23-en-22-one] | 4.75 ± 0.97 µM | 1.87 ± 0.24 | 1.80 ± 0.25 | 4.44 ± 0.87 | 0.26 ± 0.31 | 0.56 ± 0.9 µM |  | 196.5 to 199 °C | 5.48 µM |  | 
CC12CCC(O)CC1CCC1C2CCC23C(=O)C=CCC2CCC13 (stereo not drawn) [Compound 35a, (3α,5α)-3-Hydroxy-13,24-cyclo-18,21-dinorchol-22-en-24-one] | 0.197 ± 0.023 µM | 1.98 ± 0.25 | 8.33 ± 0.75 | 9.45 ± 4.19 | 0.07 ± 0.10 | 1.02 ± 0.0 µM |  | 242 to 243 °C | 2.66 µM | readily reversible | 
CC12CCC(O)CC1CCC1C2CCC23C(=O)C=CCC2CCC13 (stereo not drawn) [Compound 35b, (3α,5β)-3-Hydroxy-13,24-cyclo-18,21-dinorchol-22-en-24-one] | 0.105 ± 0.012 µM | 1.36 ± 0.60 | 3.15 ± 1.19 | 21.38 ± 11.08 | 0.20 ± 0.19 | 0.40 ± 0.13 µM |  | 222 to 223 °C | 1 µM |  | 
C[C@]12CC[C@@H](O)C[C@@H]1CCC1C3CC[C@@H]4[C@H](C#N)CCC[C@]34CCC12 (stereo partly drawn) [Compound 39, (3α,5α,20R)-3-Hydroxy-13,24-cyclo-18,21-dinorcholane-20-carbonitrile] | 1.67 ± 0.138 µM | 1.04 ± 0.03 | 1.12 ± 0.08 | 1.70 ± 0.10 | 0.04 ± 0.04 | 0.49 ± 0.09 µM |  | 213 to 214 °C |  |  | None @ 10
C[C@]12CC[C@@H](O)C[C@@H]1CCC1C3CC[C@@H]4[C@@H](C#N)CCC[C@]34CCC12 (stereo partly drawn) [Compound 40, (3α,5α,20S)-3-Hydroxy-13,24-cyclo-18,21-dinorcholane-20-carbonitrile] | 0.173 ± 0.012 µM | 1.06 ± 0.03 | 1.23 ± 0.02 | 1.27 ± 0.02 | −0.01 ± 0.01 | >10 µM |  | 250 to 251 °C |  |  | None @ 10
C[C@]12CC[C@@H](O)C[C@@H]1CCC1C3CC[C@@H]4C[C@@H](C#N)CC[C@]34CCC12 (stereo partly drawn) [Compound 44, (3α,5α,22S)-3-Hydroxy-13,24-cyclo-18,21-dinorcholane-22-carbonitrile] | 0.585 ± 0.03 µM | 1.19 ± 0.02 | 1.14 ± 0.13 | 4.01 ± 0.42 | 0.03 ± 0.01 | 0.30 ± 0.03 µM | 6.28 ± 1.08 µM | 199 to 200 °C |  |  | 
C[C@]12CC[C@@H](O)C[C@@H]1CCC1C3CC[C@@H]4C[C@H](C#N)CC[C@]34CCC12 (stereo partly drawn) [Compound 45, (3α,5α,22R)-3-Hydroxy-13,24-cyclo-18,21-dinorcholane-22-carbonitrile] | 44.3 ± 21.3 µM | 0.90 ± 0.02 | 0.82 ± 0.02 | 0.87 ± 0.01 | −0.01 ± 0 | >10 µM |  | 244 to 246 °C |  |  | None @ 10
C[C@]12CC[C@@H](O)C[C@@H]1CCC1C3CC[C@@H]4CC[C@@H](C#N)C[C@]34CCC12 (stereo partly drawn) [Compound 49, (3α,5α,20R)-3-Hydroxy-13,24-cyclo-18,21-dinorcholane-23-carbonitrile] | 0.574 ± 0.026 µM |  |  | 1.3 ± 0.1 |  | 0.35 ± 0.09 µM | > 10 µM | 182 to 183 °C |  |  | 
